Source: patent publication US20120177697A1, “Excipients In Drug Delivery Vehicles” (Durect Corporation, priority 2003, published 2012)
Structures can show the parent of a compound that is named as a salt.

What was measured:
[1] = cited from earlier work
[2] = Saturation concentration in de-ionized water; format: physicochemical; details: DI water
Description: Bupivacaine hydrochloride (Sigma-Aldrich Corporation, St. Louis, Mo.) was dissolved in de-ionized (DI) water at a concentration of 40 mg/ml (saturation). A calculated amount of sodium hydroxide (1 N solution) was added to the solution and the pH of the final mixtures was adjusted to 10 to precipitate the BP base. The precipitated product was filtered, and further washed with DI water for at least three times. The precipitated product was dried at approximately 40° C. in vacuum for 24 hours.

| concentration in de-ionized water at saturation [2] | Structure (SMILES) | reported solubility in water [1] |
| --- | --- | --- |
|  | CC(=O)OCC(COC(C)=O)OC(C)=O [triacetin] | 7.17 grams in 100 ml of water |
| 40000 µg/mL | CCCCN1CCCCC1C(=O)Nc1c(C)cccc1C (centres unmarked) [Bupivacaine hydrochloride] |  |
